Measurements published in patent US11446402B2, “Composition for material delivery, including exosome mimetics derived from red blood cells, and use thereof” (Kyungpook National University Industry—Academic Cooperation …, priority 2018, dated 2022).

What was measured:
8505C cells = assay: Labeling of tumor cells with ^99mTc, uptake by gamma-counter; format: cell-based, human; conditions: 4 μCi
Method: A human atypical thyroid carcinoma 8505C cell line (Deutsche Sammlung von Mikroorganismen and Zellkulturen (DSMZ)) was cultured under a humidified atmosphere of 5% CO2 at 37° C. in Dulbecco's Modified Eagle Medium (DMEM, Invitrogen, Grand Island, N.Y., USA) supplemented with 10% fetal bovine serum (FBS), 10 U/ml penicillin, and 10 μg/ml streptomycin (Invitrogen). The 8505C cells were cultured together with ^99mTc-RBC-EM with various doses (0, 1, 2, and 4 μCi). 24 hours later, free ^99mTc-RBC-EM, which had not been absorbed in cells, were washed using PBS. Thereafter, the 8505C cells were cultured in a 20% FBS solution in a 37° C. CO2 incubator for 1, 6, 12, and 18 hours. The uptake values were measured by a gamma-counter (Cobra II, 1 Hewlett Packard, USA) at all the time points, and the amount of radiation measured was shown as a count per minute (cpm) unit. In order to compare the aforementioned results with the results of ^99mTc-RBC-EM (4 μCi), it was measured whether tumor cells were labeled with ^99mTc-RBC-EM using free ^99mTc (4 μCi).

[1] = In vivo gamma camera imaging after tail vein infusion; design: species or system C57BL/6 mice
Method: In vivo gamma camera imaging was performed on 5-week-old male C57BL/6 mice (Hamamatsu, Shizuoka). The gamma camera images were captured and taken for 10 min using a 2 mm pinhole collimator (Infinia II, GE Healthcare, Milwaukee, Wis., USA). A 200 μl volume of 37 MBq ^99mTC-RBC-EM was infused into the tail vein of mice. As a control, the same amount of free ^99mTc was infused. During the imaging, mice were continuously anesthetized using 2.5% isoflurane (Merial, Lyon, France). The gamma camera images were obtained by capturing the gamma camera images 1 hour and 3 hours after infusing ^99mTc-RBC-EM and free ^99mTc.
The region of interests (ROIs) in mice into which free ^99mTc was infused were the thyroid gland and the stomach, and the region of interests (ROIs) in mice into which ^99mTc-RBC-EM was infused were the thyroid gland and the liver/spleen. The right thigh part was used as a control of ROI. The average ROI count per pixel was calculated by dividing the same mice by the control ROI.

## [99Tc] [free ^99mTc, technetium-99m]
8505C cells
  absorption in 8505C cells: rarely absorbed
  absorption in 8505C cells as the time is increased: not increased
[1]; 1 hour after injection, intravenous
  organs of uptake in gamma camera image: strong uptake of free ^99mTc in the thyroid gland, the stomach, and the bladder
[1]; free ^99mTc: thyroid gland and stomach, ^99mTc-RBC-EM: thyroid gland, liver, spleen
  uptake in regions of interest 3 hours after the infusion compared to 1 hour: significantly (P<0.001) increased
